# Activity calls are given as the source filed them. The calls are words filed in the database; no cut-off is given here.
# Test system: HaCaT
# Test: Induction of cell migration in human HaCaT cells at 30 uM by in vitro wound healing assay
# Assay type: functional, cell-based
row,Compound,Activity
1,CCCCCN1Cc2cc(OC)ccc2CC(C)C1=O (stereo not drawn),inactive
2,COc1ccc2c(c1)CN(C(C)C)C(=O)C(C)C2 (stereo not drawn),inactive
3,CCCN1Cc2cc(OC)ccc2CC(C)C1=O (stereo not drawn),inactive
4,CCCCN1Cc2cc(OC)ccc2CC(C)C1=O (stereo not drawn),inactive
5,COc1ccc2c(c1)CN(C)C(=O)C(C)C2 (stereo not drawn),Active
6,COc1ccc2c(c1)CNC(=O)C(C)C2 (stereo not drawn),Active
7,COc1ccc2c(c1)CN(Cc1ccccc1)C(=O)C(C)C2 (stereo not drawn),inactive
8,CCN1Cc2cc(OC)ccc2CC(C)C1=O (stereo not drawn),Active

# From ChEMBL document CHEMBL1781891, “An efficient preparation of N-alkyl-2-benzazepine derivatives and investigation of their biological activity” (Bioorg Med Chem Lett, 2009)
